According to US5624906A, “Oral hygiene compositions comprising heteroatom containing alkyl aldonamide compounds” (Lever Brothers Company, Division of Conopco, Inc., priority 1994, dated 1997):

What was measured:
Krafft point = format: physicochemical; details: for Krafft Point (1.0%): 1.0% in water; for Krafft Point (0.1%): 0.1% in water
Procedure: The temperature at and above which surfactants begin to form micelles instead of precipitates is referred to as the Krafft point (Tk) and at this temperature the solubility of a surfactant becomes equal to its CMC (numerical value at which micelles are formed).
The Krafft point was measured by preparing 650 ml of a 0.1% or 1.0% dispersion of aldonamide in water by weight. If the surfactant was soluble at room temperature, the solution was slowly cooled to 0° C. […] (less than zero). If it precipitated out of solution, the temperature at which precipitation occurs was taken as the Krafft point.
If the surfactant was insoluble at room temperature, the dispersion was slowly heated until the solution became homogeneous. It was then slowly cooled until precipitation occurred. The temperature at which the surfactant precipitates out of solution upon cooling was taken as the Krafft point.

[1] = Ross-Miles foam height (Examples 81-84); format: physicochemical; details: for Foam Height Final: after 10 minutes; for Foam Height Final / Foam Height Initial: 0.1% aldonamide, 40° C. (or 5-10° C. above Krafft point), 0 ppm hardness; for Solubility: 0.1% in water
Procedure: In the Ross-Miles method, 200 mL of a surfactant solution contained in a pipette of specified dimensions with a 2.9-mm-i.d. orifice is allowed to fall 90 cm onto 50 mL of the same solution contained in a cylindrical vessel maintained at a given temperature by means of a water jacket. The height of the foam produced in the cylindrical vessel is read immediately after all the solution has run out of the pipette and then again after a given amount of time.
Using this method, the foam production (initial foam height in mm) and foam stability (final foam height after 10 minutes in mm) were measured at 0.1% aldonamide concentration, 40° C. and 0 ppm (parts per million) hardness.

| Molecule | Krafft Point (1.0%) (Krafft point) | Foam Height Final [1] | Krafft Point (0.1%) (Krafft point) | further results |
| --- | --- | --- | --- | --- |
| CCCCCCCCCCCCOC(=O)CCNC(=O)[C@H](O)[C@@H](O)[C@H](O[C@@H]1O[C@H](CO)[C@H](O)[C@H](O)[C@H]1O)[C@H](O)CO [D-Lactobionyl C12 β-Alaninate, N-D-lactobionyl dodecyl β-alaninate] | < 0 °C | – | – | – |
| CCCCCCCCCCCCOCCCNC(=O)[C@H](O)[C@H](O)[C@@H](O)[C@H](O)[C@H](O)CO [C12 Oxypropyl D-Glucoheptonamide] | – | 80 mm | 73 °C | – |
| CCCCCCCC/C=C\CCCCCCCCNCCCNC(=O)[C@H](O)[C@@H](O)[C@H](O)[C@H](O)CO [Oleylaminopropyl D-Gluconamide, oleylaminopropyl D-gluconamide] | – | 84 mm | < 0 °C | – |
| CCCCCCCCCCCCCCNC(=O)[C@H](O)[C@@H](O)[C@H](O)[C@H](O)CO [C14 D-Gluconamide] | – | – | > 100 °C | Solubility [1]: Insoluble |
| cocoaminopropyl D-lactobionamide | < 0 °C | 168 mm | – | Foam Height Initial [1]: 171 mm |
| CCCCCCCCCCCNC(=O)[C@H](O)[C@@H](O)[C@H](O)[C@H](O)CO [C11 D-Gluconamide] | – | – | 87 °C | – |
| dodecyl to pentadecyloxypropyl D-lactobionamide [C12 -C15 Oxypropyl D-Lactobionamide] | < 0 °C | 155 mm | – | Foam Height Initial [1]: 166 mm |
| CCCCCCCC/C=C\CCCCCCCCNCCCNC(=O)[C@H](O)[C@@H](O)[C@H](O[C@@H]1O[C@H](CO)[C@H](O)[C@H](O)[C@H]1O)[C@H](O)CO [Oleylaminopropyl D-Lactobionamide, oleylaminopropyl D-lactobionamide] | < 0 °C | – | – | – |
| CCCCCCCCCCCCOCCOCCOC(=O)CNC(=O)[C@H](O)[C@@H](O)[C@H](O)[C@H](O)CO [N-D-Gluconyl C12 Di(oxyethyl) Glycinate, N-D-Gluconyl Dodecyldi(oxyethyl) Glycinate] | – | – | < 0 °C | – |
| CCCCCCCCNC(=O)[C@H](O)[C@@H](O)[C@H](O)[C@H](O)CO [C8 D-Gluconamide] | – | 0 mm | 12 °C | Foam Height Initial [1]: 0 mm |
| CCCCC(CC)COCCCNC(=O)[C@H](O)[C@@H](O)[C@H](O)[C@H](O)CO (stereo partly drawn) [Ethylhexyloxypropyl D-Gluconamide] | – | 0 mm | < 0 °C | Foam Height Initial [1]: 0 mm |
| CCCCCCCCCCCCCCNC(=O)[C@H](O)[C@@H](O)[C@H](O[C@H]1O[C@H](CO)[C@@H](O)[C@H](O)[C@H]1O)[C@H](O)CO [C14 D-Maltobionamide] | 46 °C | 140 mm | – | – |
| CCCCCCCCCCCCNC(=O)[C@H](O)[C@@H](O)[C@@H](O)[C@H](O)CO [C12 D-Galactonamide] | – | – | > 100 °C | Solubility [1]: Insoluble |
| dodecyl to pentadecyloxypropylaminopropyl D-lactobionamide | < 0 °C | 169 mm | – | Foam Height Initial [1]: 173 mm |
| CCCCCCCCCCCCNC(=O)[C@H](O)[C@H](O)[C@@H](O)[C@@H](O)CO [C12 L-Mannonamide] | – | – | > 100 °C | Solubility [1]: Insoluble |
| CCCCCCCCCCCCCNC(=O)[C@H](O)[C@@H](O)[C@H](O[C@@H]1O[C@H](CO)[C@H](O)[C@H](O)[C@H]1O)[C@H](O)CO [C13 D-Lactobionamide] | 70 °C | 78 mm | – | – |
| CCCCCCCCCCCCNC(=O)[C@H](O)[C@H](O)[C@@H](O)[C@@H](O)[C@H](O)CO [C12 D-Glycero-L-Mannoheptonamide] | – | – | > 100 °C | Solubility [1]: Insoluble |

| Molecule | Krafft Point (1.0%) (Krafft point) | Foam Height Final [1] | Krafft Point (0.1%) (Krafft point) | further results |
| --- | --- | --- | --- | --- |
| CCCCCCCNC(=O)[C@H](O)[C@@H](O)[C@H](O)[C@H](O)CO [C7 D-Gluconamide] | – | 0 mm | < 0 °C | Foam Height Initial [1]: 0 mm |
| CCCCCCCCCCCCNC(=O)[C@H](O)[C@@H](O)[C@H](O[C@@H]1O[C@H](CO)[C@H](O)[C@H](O)[C@H]1O)[C@H](O)CO [C12 D-Lactobionamide] | 38 °C | 20 mm | – | – |
| CCCCCCCCCNC(=O)[C@H](O)[C@@H](O)[C@H](O[C@@H]1O[C@H](CO)[C@H](O)[C@H](O)[C@H]1O)[C@H](O)CO [C9 D-Lactobionamide, nonyl D-lactobionamide] | 42 °C | 0 mm | – | Foam Height Initial [1]: 0 mm |
| soyaaminopropyl D-gluconamide | – | – | < 18 °C | – |
| CCCCCCCCCCCCNC(=O)C(O)C(O)C(O)C(O)C(O)C(O)CO [C12 D-Glucooctonamide] | – | – | < 86 °C | – |
| CCCCCCCCCCCCCCCNC(=O)[C@H](O)[C@@H](O)[C@H](O[C@@H]1O[C@H](CO)[C@H](O)[C@H](O)[C@H]1O)[C@H](O)CO [C15 D-Lactobionamide] | 84 °C | – | – | – |
| CCCCCCCCCCCCOCCCNC(=O)[C@H](O)[C@@H](O)[C@H](O[C@H]1O[C@H](CO)[C@@H](O)[C@H](O)[C@H]1O)[C@H](O)CO [C12 Oxypropyl D-Maltobionamide, dodecyloxypropyl D-maltobionamide] | < 0 °C | – | – | – |
| CCCCCCCCCCCCOC(=O)CNC(=O)[C@H](O)[C@@H](O)[C@H](O[C@@H]1O[C@H](CO)[C@H](O)[C@H](O)[C@H]1O)[C@H](O)CO [D-Lactobionyl C12 Glycinate, N-D-lactobionyl dodecyl glycinate] | < 0 °C | – | – | – |
| CCCCCCCCCCCCNC(=O)[C@H](O)[C@H](O)[C@H](O)CO [C12 Ribonamide, dodecyl D-ribonamide] | – | – | 54 °C | – |
| CCCCCCCCCCCCOC(=O)CNC(=O)[C@H](O)[C@@H](O)[C@H](O)[C@H](O)CO [N-D-Gluconyl C12 Glycinate, N-D-gluconyl dodecyl glycinate] | – | – | 63 °C | – |
| CCCCCCCCCCCCCCOCCCNC(=O)[C@H](O)[C@@H](O)[C@H](O)[C@H](O)CO [C14 Oxypropyl D-Gluconamide] | – | – | 53 °C | – |
| CCCCCCCCCCCCCCOCCCNC(=O)[C@H](O)[C@@H](O)[C@H](O[C@@H]1O[C@H](CO)[C@H](O)[C@H](O)[C@H]1O)[C@H](O)CO [C14 Oxypropyl D-Lactobionamide, tetradecyloxypropyl D-lactobionamide] | < 0 °C | – | – | – |
| CCCCCCCCCCCCNC(=O)[C@H](O)[C@H](O)[C@@H](O)[C@H](O)[C@H](O)CO [C12 D-Glucoheptonamide] | – | – | 91 °C | – |
| CCCCCCCCCCCCCCCCCCNC(=O)[C@H](O)[C@@H](O)[C@H](O[C@@H]1O[C@H](CO)[C@H](O)[C@H](O)[C@H]1O)[C@H](O)CO [C18 D-Lactobionamide] | 82 °C | – | – | – |
| CCCCCCCCCCCC(=O)OCCNC(=O)[C@H](O)[C@@H](O)[C@H](O)[C@H](O)CO [N-D-Gluconyl C12 Ester of Ethanolamine, N-D-gluconyl dodecyl ester of ethanolamine] | – | – | 63 °C | – |
| CCCCCCCCCCCCOC(=O)C(C)NC(=O)[C@H](O)[C@@H](O)[C@H](O)[C@H](O)CO (mixture of isomers) [N-D-Gluconyl C12 DL-Alaninate, N-D-Gluconyl Dodecyl DL-Alaninate] | – | – | 53 °C | – |
| CCCCCCCCCCCCNC(=O)[C@@H](O)[C@H](O)[C@@H](O)[C@@H](O)CO [C12 L-Gluconamide] | – | – | 91 °C | – |
